This assay concerns the target T1, MEK (Homo sapiens, UniProt Q02750).
T1 construct: no tag is given for the 2D mutant
As to the kind of experiment: in vitro MEK assay. In kind it is biochemical. How it is done:
For evaluation of direct MEK activity, 10 μg GST-MEK, is incubated in the presence of absence of test compound with 5 μg of a glutathione S-transferase fusion protein containing p44MAP kinase with a lysine to alanine mutation at position 71 (GST-MAPK-KA). This mutation eliminates kinase activity of MAPK, so only kinase activity attributed to the added MEK remains. Incubations are 15 minutes at 30° C. in a final volume of 50 μL containing 50 mM Tris (pH 7.5), […], 2, μM EGTA, and 10 μM [γ-^32P]ATP. The reaction is stopped by addition of Laemmli SDS sample buffer. Phosphorylated GST-MAPK-KA is resolved by electrophoresis on a 10% polyacrylamide gel. Radioactivity incorporated into GST-MAPK-KA is determined by autoradiography, and subsequent scintillation counting of excised bands.
Alternatively, an artificially activated MEK containing serine to glutamate mutations at positions 218 and 222 (GST-MEK-2E) is used. When these two sites are phosphorylated, MEK activity is increased. Phosphorylation of these sites can be mimicked by mutation of the serine residues to glutamate. For this assay, 5 μg GST-MEK-2E is incubated with 5 μg GST-MAPK-KA for 15 minutes at 30° C. in the same reaction buffer as described above. Reactions are terminated and analyzed as above.

The source of these data is US7001905B2, “Substituted diarylamines as MEK inhibitors” (Warner-Lambert Company, priority 2000, dated 2006).

Structures are written as SMILES.

Usually IC50 stands for the concentration at which inhibition is half-maximal.

T1 sequence (Q02750 whole entry S218D/S222D, form open): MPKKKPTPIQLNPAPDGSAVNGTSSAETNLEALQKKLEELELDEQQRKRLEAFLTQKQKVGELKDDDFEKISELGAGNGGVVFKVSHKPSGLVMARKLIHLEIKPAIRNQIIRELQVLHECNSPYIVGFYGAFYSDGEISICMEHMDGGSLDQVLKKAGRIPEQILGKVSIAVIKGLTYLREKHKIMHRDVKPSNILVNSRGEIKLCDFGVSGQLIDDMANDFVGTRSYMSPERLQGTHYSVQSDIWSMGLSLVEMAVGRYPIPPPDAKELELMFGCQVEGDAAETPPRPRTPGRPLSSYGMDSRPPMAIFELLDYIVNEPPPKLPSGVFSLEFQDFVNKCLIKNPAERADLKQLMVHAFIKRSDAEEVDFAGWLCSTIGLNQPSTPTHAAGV

`CCn1nccc1NC(=O)c1cc(C(=O)O)c(Nc2ccc(I)cc2C)c(F)c1F` [Example 84, N-(2-Ethyl-2H-pyrazol-3-yl)-4,5-difluoro-6-(4-iodo-2-methyl-phenylamino)-isophthalamic acid]: it took 960 nM to reach half-maximal inhibition (IC50) and the “in vitro MEK assay: % inhibition @ 1 μM” value is reported as 79%.
As for `Cc1cc(I)ccc1Nc1c(C(=O)O)cc(C(=O)NCCc2c[nH]cn2)c(F)c1F` [Example 88, 4,5-Difluoro-N-[2-(1H-imidazol-4-yl)-ethyl]-6-(4-iodo-2-methyl-phenylamino)-isophthalamic acid], the IC50 came to 1400 nM and the “in vitro MEK assay: % inhibition @ 1 μM” value is recorded as 60%.
`Cc1cc(I)ccc1N1COC(=O)c2cc(C(=O)NCCN3CCCC3)c(F)c(F)c21` [Example 11, 7,8-Difluoro-1-(4-iodo-2-methyl-phenyl)-4-oxo-1,4-dihydro-2H-3,1-benzoxazine-6-carboxylic acid (2-pyrrolidin-1-yl-ethyl)-amide]: the “in vitro MEK assay: % inhibition @ 1 μM” value amounted to 33%.
Take `Cc1cc(I)ccc1N1COC(=O)c2cc(C(=O)Nc3cc[nH]n3)c(F)c(F)c21` [Example 36, 7,8-Difluoro-1-(4-iodo-2-methyl-phenyl)-4-oxo-1,4-dihydro-2H-3,1-benzoxazine-6-carboxylic acid (1H-pyrazol-3-yl)-amide]: the “in vitro MEK assay: % inhibition @ 1 μM” value is 60%.
Still for that read-out and setting: under `Cc1cc(I)ccc1N1COC(=O)c2cc(C(=O)N3CCCC(CO)C3)c(F)c(F)c21` (stereo not shown) [Example 39, 7,8-Difluoro-6-(3-hydroxymethyl-piperidine-1-carbonyl)-1-(4-iodo-2-methyl-phenyl)-1,2-dihydro-3,1-benzoxazin-4-one] stands 71%; under `Cc1cc(I)ccc1Nc1c(C(=O)O)cc(C(=O)N2CCC(N3CCCC3)CC2)c(F)c1F` [Example 78, 3,4-Difluoro-2-(4-iodo-2-methyl-phenylamino)-5-[1-(4-pyrrolidin-1-yl-piperidin-1-yl)-methanoyl]-benzoic acid], 33%.
In the case of `Cc1cc(I)ccc1N1COC(=O)c2cc(C(=O)Nc3ccccc3CCO)c(F)c(F)c21` [Example 30, 7,8-Difluoro-1-(4-iodo-2-methyl-phenyl)-4-oxo-1,4-dihydro-2H-3,1-benzoxazine-6-carboxylic acid [2-(2-hydroxy-ethyl)-phenyl]-amide], the “in vitro MEK assay: % inhibition @ 1 μM” value is listed as 55%.
As to `Cc1cc(I)ccc1Nc1c(C(=O)O)cc(C(=O)N(C)CCc2c[nH]c3ccccc23)c(F)c1F` [Example 95, 4,5-Difluoro-N-[2-(1H-indol-3-yl)-ethyl]-6-(4-iodo-2-methyl-phenylamino)-N-methyl-isophthalamic acid], the “in vitro MEK assay: % inhibition @ 1 μM” value was determined as 77%.
On the same count and under the same terms, the value for `CCN1CCN(C(=O)c2cc3c(c(F)c2F)N(c2ccc(I)cc2C)COC3=O)CC1` [Example 54, 6-(4-Ethyl-piperazine-1-carbonyl)-7,8-difluoro-1-(4-iodo-2-methyl-phenyl)-1,2-dihydro-3,1-benzoxazin-4-one] was 56%.
For `Cc1cc(I)ccc1N1COC(=O)c2cc(C(=O)N(C)C)c(F)c(F)c21` [Example 5, 7,8-Difluoro-1-(4-iodo-2-methyl-phenyl)-4-oxo-1,4-dihydro-2H-benzo[d][1,3]oxazine-6-carboxylic acid dimethylamide], the midpoint of inhibition, the IC50, lay at 5800 nM.
Regarding `Cc1cc(I)ccc1N1COC(=O)c2cc(C(=O)N3CCC(CCO)CC3)c(F)c(F)c21` [Example 44, 7,8-Difluoro-6-[4-(2-hydroxy-ethyl)-piperidine-1-carbonyl]-1-(4-iodo-2-methyl-phenyl)-1,2-dihydro-3,1-benzoxazin-4-one], the “in vitro MEK assay: % inhibition @ 1 μM” value turned out to be 69%.
Regarding `Cc1cc(I)ccc1Nc1c(C(=O)O)cc(C(=O)NCc2cccnc2)c(F)c1F` [Example 71, 4,5-Difluoro-6-(4-iodo-2-methyl-phenylamino)-N-pyridin-3-ylmethyl-isophthalamic acid], inhibition was half-maximal at 1450 nM (IC50) and the “in vitro MEK assay: % inhibition @ 1 μM” value turned out to be 86%.
On to `Cc1cc(I)ccc1N1COC(=O)c2cc(C(=O)NCCN3CCOCC3)c(F)c(F)c21` [Example 42, 7,8-Difluoro-1-(4-iodo-2-methyl-phenyl)-4-oxo-1,4-dihydro-2H-3,1-benzoxazine-6-carboxylic acid (2-morpholin-4yl-ethyl)-amide], for which the “in vitro MEK assay: % inhibition @ 1 μM” value is listed as 15%.
As for `Cc1cc(I)ccc1Nc1c(C(=O)O)cc(C(=O)N2CCC(O)C2)c(F)c1F` (stereo not shown) [Example 77, 3,4-Difluoro-5-[1-(3-hydroxy-pyrrolidin-1-yl)-methanoyl]-2-(4-iodo-2-methyl-phenylamino)-benzoic acid], the IC50 came out at 880 nM and the “in vitro MEK assay: % inhibition @ 1 μM” value is on record as 83%.
As to `Cc1cc(I)ccc1Nc1c(C(=O)O)cc(C(=O)NCCCn2ccnc2)c(F)c1F` [Example 90, 4,5-Difluoro-N-(3-imidazol-1-yl-propyl)-6-(4-iodo-2-methyl-phenylamino)-isophthalamic acid], the “in vitro MEK assay: % inhibition @ 1 μM” value amounted to 59%.
Same read-out and setting: under `Cc1cc(I)ccc1N1COC(=O)c2cc(C(=O)N3CCC(N4CCCC4)CC3)c(F)c(F)c21` [Example 41] stands 7%; under `Cc1cc(I)ccc1Nc1c(C(=O)O)cc(C(=O)N2CC[C@@H](O)C2)c(F)c1F` [Example 61, 3,4-Difluoro-5-[1-((R)-3-hydroxy-pyrrolidin-1-yl)-methanoyl]-2-(4-iodo-2-methyl-phenylamino)-benzoic acid], 75%.
Take `Cc1cc(I)ccc1N1COC(=O)c2cc(C(=O)N3CCC(O)CC3)c(F)c(F)c21` [Example 43, 7,8-Difluoro-6-(4-hydroxy-piperidine-1-carbonyl)1-(4-iodo-2-methyl-phenyl)-1,2-dihydro-3,1-benzoxazin-4-one]: the “in vitro MEK assay: % inhibition @ 1 μM” value stood at 52%.
Same read-out and setting: the value for `Cc1cc(I)ccc1Nc1c(C(=O)O)cc(C(=O)N2CCOCC2)c(F)c1F` [Example 89, 3,4-Difluoro-2-(4-iodo-2-methyl-1-phenylamino)-5-(1-morpholin-4-yl-methanoyl)-benzoic acid] was 89%; that for `Cc1cc(I)ccc1Nc1c(C(=O)O)cc(C(=O)NCCCN2CCOCC2)c(F)c1F` [Example 91, 4,5-Difluoro-6-(4-iodo-2-methyl-phenylamino)-N-(3-morpholin4-yl-propyl)-isophthalamic acid] was 58%.
As to `Cc1cc(I)ccc1Nc1c(C(=O)O)cc(C(=O)NCc2ccncc2)c(F)c1F` [Example 80, 4,5-Difluoro-6-(4-iodo-2-methyl-phenylamino)-N-pyridin4-ylmethyl-isophthalamic acid], the IC50 came to 1700 nM and the “in vitro MEK assay: % inhibition @ 1 μM” value came out at 71%.
`Cc1cc(I)ccc1N1COC(=O)c2cc(C(=O)Nc3nc4c(C)cccc4s3)c(F)c(F)c21` [Example 23, 7,8-Difluoro-1-(4-iodo-2-methyl-phenyl)-4-oxo-1,4-dihydro-2H-3,1-benzoxazine-6-carboxylic acid (4-methyl-benzothiazol-2-yl)-amide]: the “in vitro MEK assay: % inhibition @ 1 μM” value came out at 26%.
For `Cc1cc(I)ccc1N1COC(=O)c2cc(C(=O)N3CCNCC3)c(F)c(F)c21` [Example 56, 7,8-Difluoro-1-(4-iodo-2-methyl-phenyl)-6-(piperazine-1-carbonyl)-1,2-dihydro-3,1-benzoxazin-4-one], the “in vitro MEK assay: % inhibition @ 1 μM” value stood at 1%.
For `CCOC(=O)c1c[nH]nc1NC(=O)c1cc(C(=O)O)c(Nc2ccc(I)cc2C)c(F)c1F` [Example 73, 3-({1-[5-Carboxy-2,3-difluoro-4-(4-iodo-2-methyl-phenylamino)-phenyl]-methanoyl}-amino)-1H-pyrazole-4-carboxylic acid ethyl ester], the midpoint of inhibition, the IC50, lay at 1100 nM and the “in vitro MEK assay: % inhibition @ 1 μM” value is listed as 86%.
Take `Cc1cc(I)ccc1N1COC(=O)c2cc(C(=O)NCCCn3ccnc3)c(F)c(F)c21` [Example 52, 7,8-Difluoro-1-(4-iodo-2-methyl-phenyl)-4-oxo-1,4-dihydro-2H-3,1-benzoxazine-6-carboxylic acid (3-imidazol-1-yl-propyl)amide]: the “in vitro MEK assay: % inhibition @ 1 μM” value was found to be 35%.
With `Cc1cc(I)ccc1Nc1c(C(=O)O)cc(C(=O)N2CCC(CCO)CC2)c(F)c1F` [Example 83, 3,4-Difluoro-5-{1-[4-(2-hydroxy-ethyl)-piperidin-1-yl]-methanoyl}-2-(4-iodo-2-methyl-phenylamino)-benzoic acid], the IC50 came out at 150 nM and the “in vitro MEK assay: % inhibition @ 1 μM” value was determined as 90%.
Regarding `COc1ccc(NC(=O)c2cc3c(c(F)c2F)N(c2ccc(I)cc2C)COC3=O)cn1` [Example 46, 7,8-Difluoro-1-(4-iodo-2-methyl-phenyl)-4-oxo-1,4-dihydro-2H-3,1-benzoxazine-6-carboxylic acid (6-methoxy-pyridin-3-yl)amide], the “in vitro MEK assay: % inhibition @ 1 μM” value was 43%.
On to `Cc1cc(I)ccc1Nc1c(C(=O)O)cc(C(=O)N2CCCC(O)C2)c(F)c1F` (stereo not shown) [Example 75], for which half-maximal inhibition (IC50) was put at 465 nM and the “in vitro MEK assay: % inhibition @ 1 μM” value is reported as 92%.
Turning to `Cc1cc(I)ccc1N1COC(=O)c2cc(C(=O)NCC3(O)CCCCC3)c(F)c(F)c21` [Example 13, 7,8-Difluoro-1-(4-iodo-2-methyl-phenyl)-4-oxo-1,4-dihydro-2H-3,1-benzoxazine-6-carboxylic acid (1-hydroxy-cyclohexylmethyl)-amide], the “in vitro MEK assay: % inhibition @ 1 μM” value is listed as 23%.
